Values after ≈ are worked out from the molar mass of the structure shown. Where two headings read alike, the source gives them in different places.
Tests used:
S.aureus LMG15975 = experiment: microbe, parasite or virus in culture; format: cell-based, Staphylococcus aureus; settings: for MIC: Staphylococcus aureus, LMG15975, 20 h, read-out: Minimal Inhibition Concentration (MIC) S.aureus LMG15975
C. botulinum CECT551 = experiment: microbe, parasite or virus in culture; format: cell-based; settings: for MIC: Clostridium botulinum, CECT551, 24 h, read-out: Minimal Inhibition Concentration (MIC) C. botulinum CECT551
C. beijerinckii B504 = experiment: MIC test, anaerobes; format: cell-based; settings: for MIC: Clostridium beijerinckii, B504, 24 h, read-out: Minimal Inhibition Concentration (MIC) C. beijerinckii B504
Description: (§1) The resveratrol derivatives were serially diluted in cMHB (BD Difco) in 96-well microplates. Plates were then inoculated with the indicator bacteria at a final concentration of 5 × 10^5 CFU/mL and incubated at 37 °C for 20 h. In the case of the anaerobic bacteria (Clostridium and Clostridioides), the test was performed following the recommendation of CLSI for anaerobes[77] but using RCM medium instead of cMHB. The cultures were cultivated inside an anaerobic chamber at 37 °C for 24 h. All the tests were performed in triplicate.

C. ihumii AP5 = experiment: MIC test, anaerobes; format: cell-based; settings: 24 h, read-out: Minimal Inhibition Concentration (MIC) C. ihumii AP5
Description: as §1

[1] = tested on: panel of aerobic and anaerobic Gram-positive bacteria; experiment: organism not typed; format: cell-based
E. faecalis LMG16216 = experiment: microbe, parasite or virus in culture; format: cell-based, Enterococcus faecalis; settings: for MIC: Enterococcus faecalis, LMG16216, 20 h, read-out: Minimal Inhibition Concentration (MIC) E. faecalis LMG16216
B. cereus ATCC10987 [2] = experiment: microbe, parasite or virus in culture; format: cell-based, Bacillus cereus; settings: for MIC: Bacillus cereus, ATCC10987, 20 h, read-out: Minimal Inhibition Concentration (MIC) B. cereus ATCC10987
E. faecium LMG11423 = experiment: microbe, parasite or virus in culture; format: cell-based; settings: for MIC: Enterococcus faecium, LMG11423, 20 h, read-out: Minimal Inhibition Concentration (MIC) E. faecium LMG11423
E. faecalis V583 = experiment: microbe, parasite or virus in culture; format: cell-based, Enterococcus faecalis; settings: for MIC: Enterococcus faecalis, V583, 20 h, read-out: Minimal Inhibition Concentration (MIC) E. faecalis V583
E. faecalis LMG08222 = experiment: microbe, parasite or virus in culture; format: cell-based, Enterococcus faecalis; settings: for MIC: Enterococcus faecalis, LMG08222, 20 h, read-out: Minimal Inhibition Concentration (MIC) E. faecalis LMG08222
E. faecium LMG16003 = experiment: microbe, parasite or virus in culture; format: cell-based; settings: for MIC: Enterococcus faecium, LMG16003, 20 h, read-out: Minimal Inhibition Concentration (MIC) E. faecium LMG16003
C. perfringens CECT376 = experiment: microbe, parasite or virus in culture; format: cell-based; settings: for MIC: Clostridium perfringens, CECT376, 24 h, read-out: Minimal Inhibition Concentration (MIC) C. perfringens CECT376
B. cereus ATCC14579 = experiment: microbe, parasite or virus in culture; format: cell-based, Bacillus cereus; settings: for MIC: Bacillus cereus, ATCC14579, 20 h, read-out: Minimal Inhibition Concentration (MIC) B. cereus ATCC14579
S.aureus LMG10147 = experiment: microbe, parasite or virus in culture; format: cell-based, Staphylococcus aureus; settings: for MIC: Staphylococcus aureus, LMG10147, 20 h, read-out: Minimal Inhibition Concentration (MIC) S.aureus LMG10147
E. coli LMG8224 = experiment: Outer membrane permeabilization test (MIC with or without L-11 peptide); settings: for MIC: Escherichia coli, LMG8224, read-out: MIC (μM) L-11 + 0 μM; for MIC (μM) L-11 + 4 μM: presence of 4 μM L-11 outer-membrane-perturbing peptide
C. difficile CECT531 = experiment: microbe, parasite or virus in culture; format: cell-based, Clostridioides difficile; settings: for MIC: Clostridioides difficile, CECT531, 24 h, read-out: Minimal Inhibition Concentration (MIC) C. difficile CECT531
S.aureus LMG8224 = experiment: microbe, parasite or virus in culture; format: cell-based, Staphylococcus aureus; settings: for MIC: Staphylococcus aureus, LMG8224, 20 h, read-out: Minimal Inhibition Concentration (MIC) S.aureus LMG8224
B. cereus ATCC10987 [3] = experiment: Effect of the compounds on actively growing bacteria (lysis, OD600); format: cell-based, Bacillus cereus; settings: 2×, 1×, and 0.5× the MIC added at mid exponential phase
[4] = tested on: B. cereus ATCC 10987, E. faecalis V583, E. faecium LMG 16003, and S. aureus LMG 8224; format: cell-based; settings: 2-fold the MIC, 24 h, cMHB
C. tetani CECT4629 = experiment: microbe, parasite or virus in culture; format: cell-based; settings: for MIC: Clostridium tetani, CECT4629, 24 h, read-out: Minimal Inhibition Concentration (MIC) C. tetani CECT4629
in vitro = settings: human
[5] = Table 1, 128 to 2 μM, RCM medium, anaerobic, 24 h

CCCCCCCCCCCC(=O)OC[C@H]1O[C@@H](Oc2cc(O)cc(/C=C/c3ccc(O)cc3)c2)[C@H](O)[C@@H](O)[C@@H]1O [compound 4]
MIC (S.aureus LMG15975): 16 µM (≈ 9.16 µg/mL)
MIC (C. botulinum CECT551): 8 µM (≈ 4.58 µg/mL)
MIC (C. beijerinckii B504): 16 µM (≈ 9.16 µg/mL)
MIC (C. ihumii AP5): 32 µM (≈ 18.3 µg/mL)
MIC [1]: 8 to 16 µM (≈ 4.58 to 9.16 µg/mL)
MIC (E. faecalis LMG16216): 64 µM (≈ 36.7 µg/mL)
MIC (B. cereus ATCC10987 [2]): 8 µM (≈ 4.58 µg/mL)
MIC (E. faecium LMG11423): 53.3 ± 10.6 µM (≈ 30.5 µg/mL)
MIC (E. faecalis V583): 53.3 ± 10.6 µM (≈ 30.5 µg/mL)
MIC (E. faecalis LMG08222): 32 µM (≈ 18.3 µg/mL)
MIC (E. faecium LMG16003): 53.3 ± 10.6 µM (≈ 30.5 µg/mL)
MIC (C. perfringens CECT376): 32 µM (≈ 18.3 µg/mL)
MIC (B. cereus ATCC14579): 8 µM (≈ 4.58 µg/mL)
MIC (S.aureus LMG10147): 16 µM (≈ 9.16 µg/mL)
MIC (E. coli LMG8224): > 128 µM
MIC (μM) L-11 + 4 μM (E. coli LMG8224): 6.6 ± 1.3 µM
MIC (C. difficile CECT531): 128 µM (≈ 73.3 µg/mL)
MIC (S.aureus LMG8224): 16 µM (≈ 9.16 µg/mL)

3-triethylsilyl resveratrol [compound 20]
IC50 (MRC5 cells): 21.3 ± 5.9 µM

CC(C)[Si](Oc1ccc(/C=C/c2cc(O)cc(O)c2)cc1)(C(C)C)C(C)C [compound 33]
MIC (S.aureus LMG15975): 128 µM (≈ 49.2 µg/mL)
MIC (C. botulinum CECT551): 10.7 ± 2.6 µM (≈ 4.12 µg/mL)
MIC (C. beijerinckii B504): 21.3 ± 5.3 µM (≈ 8.19 µg/mL)
MIC (C. ihumii AP5): 13.3 ± 2.6 µM (≈ 5.12 µg/mL)
MIC (E. faecalis LMG16216): 8 µM (≈ 3.08 µg/mL)
lysis of actively growing cells (B. cereus ATCC10987 [3]): most effective derivatives lysing the cells
MIC (B. cereus ATCC10987 [2]): 32 µM (≈ 12.3 µg/mL)
MIC (E. faecium LMG11423): 16 µM (≈ 6.15 µg/mL)
bactericidal/bacteriostatic effect [4]: bactericidal
MIC (C. tetani CECT4629): 6.7 ± 1.3 µM (≈ 2.58 µg/mL)
MIC (E. faecalis V583): 21.3 ± 5.3 µM (≈ 8.19 µg/mL)
MIC (E. faecalis LMG08222): 8 µM (≈ 3.08 µg/mL)
MIC (E. faecium LMG16003): 5.3 ± 1.3 µM (≈ 2.04 µg/mL)
IC50 (in vitro): 2800 ± 200 nM
MIC (C. perfringens CECT376): 26.6 ± 5.3 µM (≈ 10.2 µg/mL)
MIC (B. cereus ATCC14579): 26.6 ± 5.3 µM (≈ 10.2 µg/mL)
MIC (S.aureus LMG10147): 128 µM (≈ 49.2 µg/mL)
MIC (E. coli LMG8224): > 128 µM
MIC (μM) L-11 + 4 μM (E. coli LMG8224): 21.3 ± 5.3 µM
MIC (C. difficile CECT531): 16 µM (≈ 6.15 µg/mL)
MIC (S.aureus LMG8224): 128 µM (≈ 49.2 µg/mL)

3-tert-Butyldimethylsilyl resveratrol [compound 16]
Minimal Inhibition Concentration (MIC) S.aureus LMG15975 (S.aureus LMG15975): 16 ± 0 µM
Minimal Inhibition Concentration (MIC) C. botulinum CECT551 (C. botulinum CECT551; [5]): 16 µM
Minimal Inhibition Concentration (MIC) C. beijerinckii B504 (C. beijerinckii B504; [5]): 26.6 ± 5.3 µM
MIC (C. ihumii AP5; Table 1, 128 to 2 μM, RCM medium, anaerobic): 32 µM
Minimal Inhibition Concentration (MIC) E. faecalis LMG16216 (E. faecalis LMG16216): 16 ± 0 µM
IC50 (MRC5 cells): 2.7 ± 0.3 µM
Minimal Inhibition Concentration (MIC) B. cereus ATCC10987 (B. cereus ATCC10987 [2]): 16 ± 0 µM
Minimal Inhibition Concentration (MIC) E. faecium LMG11423 (E. faecium LMG11423): 16 ± 0 µM
Minimal Inhibition Concentration (MIC) C. tetani CECT4629 (C. tetani CECT4629; [5]): 6.6 ± 1.3 µM
Minimal Inhibition Concentration (MIC) E. faecalis V583 (E. faecalis V583): 16 ± 0 µM
Minimal Inhibition Concentration (MIC) E. faecalis LMG08222 (E. faecalis LMG08222): 8 ± 0 µM
Minimal Inhibition Concentration (MIC) E. faecium LMG16003 (E. faecium LMG16003): 16 ± 0 µM
Minimal Inhibition Concentration (MIC) C. perfringens CECT376 (C. perfringens CECT376): 32 µM
Minimal Inhibition Concentration (MIC) B. cereus ATCC14579 (B. cereus ATCC14579): 16 ± 0 µM
Minimal Inhibition Concentration (MIC) S.aureus LMG10147 (S.aureus LMG10147): 16 ± 0 µM
Minimal Inhibition Concentration (MIC) C. difficile CECT531 (C. difficile CECT531): 26.6 ± 5.3 µM
Minimal Inhibition Concentration (MIC) S.aureus LMG8224 (S.aureus LMG8224): 16 ± 0 µM

CCCCCCCC(=O)OC[C@H]1O[C@@H](Oc2cc(/C=C/c3ccc(OC)cc3)cc(OC)c2)[C@H](O)[C@@H](O)[C@@H]1O [compound 28]
MIC (S.aureus LMG15975): 128 µM (≈ 69.7 µg/mL)
MIC (C. botulinum CECT551): 26.6 ± 5.3 µM (≈ 14.5 µg/mL)
MIC (C. beijerinckii B504): 32 µM (≈ 17.4 µg/mL)
MIC (C. ihumii AP5): 64 µM (≈ 34.9 µg/mL)
antibacterial activity against the Gram-positive panel [1]: weak antibacterial activity
MIC (B. cereus ATCC10987 [2]): 128 µM (≈ 69.7 µg/mL)
MIC (C. tetani CECT4629): 16 µM (≈ 8.71 µg/mL)
MIC (C. perfringens CECT376): 128 µM (≈ 69.7 µg/mL)
MIC (B. cereus ATCC14579): 128 µM (≈ 69.7 µg/mL)
MIC (S.aureus LMG10147): 128 µM (≈ 69.7 µg/mL)
MIC (C. difficile CECT531): 85.3 ± 21.3 µM (≈ 46.5 µg/mL)
MIC (S.aureus LMG8224): 128 µM (≈ 69.7 µg/mL)

CCCCCCCCCCCCCCCCCC(=O)OC[C@H]1O[C@@H](Oc2cc(O)cc(/C=C/c3ccc(O)cc3)c2)[C@H](O)[C@@H](O)[C@@H]1O [compound 6, piceid stearate]
MIC (E. faecalis LMG16216): 128 µM (≈ 84.1 µg/mL)
MIC (E. faecium LMG11423): 1 µM (≈ 0.657 µg/mL)
MIC (E. faecalis V583): 128 µM (≈ 84.1 µg/mL)
MIC (E. faecalis LMG08222): 16 µM (≈ 10.5 µg/mL)
MIC (E. faecium LMG16003): 2.6 ± 0.6 µM (≈ 1.71 µg/mL)

— publication PMC9237828, “Chemically Tuning Resveratrol for the Effective Killing of Gram-Positive Pathogens” (Journal of Natural Products, 2022)
